According to paper PMC6825221, “In silico re-engineering of a neurotransmitter to activate KCNQ potassium channels in an isoform-specific manner” (Communications Biology, 2019):

How the values were obtained:
Type in all cases: cell-based
KCNQ1 = KCNQ1 (Homo sapiens, UniProt P51787); experiment: TEVC of homomeric KCNQ1 expressed in Xenopus oocytes; conditions: dose response, ΔV0.5act
From the text: (§1) We generated cRNA transcripts encoding human KCNQ1, KCNQ2, KCNQ3, KCNQ4, KCNQ5 or GLRA1 (NM_001146040) (GenScript, Piscataway, NJ, USA) by in vitro transcription using the T7 polymerase mMessage mMachine kit (Thermo Fisher Scientific), after vector linearization, from cDNA sub-cloned into plasmids incorporating Xenopus laevis β-globin 5′ and 3′ UTRs flanking the coding region to enhance translation and cRNA stability. We quantified cRNA by spectrophotometry. We generated mutant KCNQ2 and KCNQ3 cDNAs by site-directed mutagenesis using a QuikChange kit (Stratagene, San Diego, CA) and prepared the corresponding cRNAs as above. We injected defolliculated stage V and VI Xenopus laevis oocytes (Ecocyte Bioscience, Austin, TX and Xenoocyte, Dexter, MI) with KCNQ channel α subunit (5-20 ng) or GLRA1 (20 ng) cRNAs. We incubated the oocytes at 16 °C in Barth’s saline solution (Ecocyte Bioscience) containing penicillin and streptomycin, with daily washing, for 2–5 days prior to two-electrode voltage-clamp (TEVC) recording.
We performed TEVC at room temperature using an OC-725C amplifier (Warner Instruments, Hamden, CT) and pClamp10 software (Molecular Devices, Sunnyvale, CA) 2–5 days after cRNA injection as described in the section above. For recording, oocytes were placed in a small-volume oocyte bath (Warner) and viewed them with a dissection microscope. Chemicals were sourced from Sigma, Matrix Scientific and Santa Cruz. […] All stock solutions were diluted in bath solution on the day of experiments. KCNQ2/3 channel activation was screened for using either 30 µM or 100 µM concentrations of each of the six compounds, then dose responses were conducted as appropriate. […] Currents were recorded in response to voltage pulses between −120 or −80 mV and + 40 mV at 20 mV intervals from a holding potential of −80 mV, to yield current-voltage relationships, current magnitude, and for quantifying activation rate. We analyzed data using Clampfit (Molecular Devices) and Graphpad Prism software (GraphPad, San Diego, CA, USA); values are stated as mean ± SEM. […]

KCNQ2 [1] = biological target: T1, KCNQ2 (Homo sapiens, UniProt O43526); experiment: TEVC of homomeric KCNQ2 expressed in Xenopus oocytes
From the text: as §1, with “We generated mutant KCNQ2 and KCNQ3 cDNAs by site-directed mutagenesis using a QuikChange kit (Stratagene, San Diego, CA) and prepared the corresponding cRNAs as above.” left out
For recording, oocytes were placed in a small-volume oocyte bath (Warner) and viewed them with a dissection microscope. Chemicals were sourced from Sigma, Matrix Scientific and Santa Cruz. […] All stock solutions were diluted in bath solution on the day of experiments. KCNQ2/3 channel activation was screened for using either 30 µM or 100 µM concentrations of each of the six compounds, then dose responses were conducted as appropriate. Bath solution was (in mM): 96 NaCl, 4 KCl, 1 MgCl2, 1 CaCl2, 10 HEPES (pH 7.6). Compounds were introduced into the oocyte recording bath by gravity perfusion at a constant flow of 1 ml per minute for 3 min prior to recording. Pipettes were of 1–2 MΩ resistance when filled with 3 M KCl. Currents were recorded in response to voltage pulses between −120 or −80 mV and + 40 mV at 20 mV intervals from a holding potential of −80 mV, to yield current-voltage relationships, current magnitude, and for quantifying activation rate. We analyzed data using Clampfit (Molecular Devices) and Graphpad Prism software (GraphPad, San Diego, CA, USA); values are stated as mean ± SEM. We plotted raw or normalized tail currents versus prepulse voltage and fitted with a single Boltzmann function:1 g=(A1−A2)/1+exp(V12−V)∕VS+A2, where g is the normalized tail conductance, A1 is the initial value at −∞, A2 is the final value at +∞, V1/2 is the half-maximal voltage of activation and Vs the slope factor. Activation, deactivation, wash-in and washout kinetics were fitted with single exponential functions to yield a τ value.

KCNQ3* = KCNQ3* (Homo sapiens, UniProt O43525, A315T); experiment: TEVC of homomeric KCNQ3* (A315T KCNQ3 mutant) expressed in Xenopus oocytes
From the text: We next validated the in silico predictions using two-electrode voltage clamp of homomeric neuronal KCNQ2-5 channel isoforms expressed in Xenopus laevis oocytes. […] As in previous studies[8],[10], we used the A315T KCNQ3 mutant (KCNQ3*) that ensures large enough currents to accurately quantify voltage dependence and pharmacology of homomeric KCNQ3[16].
as §1
We performed TEVC at room temperature using an OC-725C amplifier (Warner Instruments, Hamden, CT) and pClamp10 software (Molecular Devices, Sunnyvale, CA) 2–5 days after cRNA injection as described in the section above. For recording, oocytes were placed in a small-volume oocyte bath (Warner) and viewed them with a dissection microscope. Chemicals were sourced from Sigma, Matrix Scientific and Santa Cruz. […] All stock solutions were diluted in bath solution on the day of experiments. KCNQ2/3 channel activation was screened for using either 30 µM or 100 µM concentrations of each of the six compounds, then dose responses were conducted as appropriate. Bath solution was (in mM): 96 NaCl, 4 KCl, 1 MgCl2, 1 CaCl2, 10 HEPES (pH 7.6). Compounds were introduced into the oocyte recording bath by gravity perfusion at a constant flow of 1 ml per minute for 3 min prior to recording. Pipettes were of 1–2 MΩ resistance when filled with 3 M KCl. Currents were recorded in response to voltage pulses between −120 or −80 mV and + 40 mV at 20 mV intervals from a holding potential of −80 mV, to yield current-voltage relationships, current magnitude, and for quantifying activation rate. We analyzed data using Clampfit (Molecular Devices) and Graphpad Prism software (GraphPad, San Diego, CA, USA); values are stated as mean ± SEM. […]

KCNQ2 [2] = biological target: T1, KCNQ2; experiment: Relative ion permeability of KCNQ2; parameters: dose or concentration left out as unconfirmed
From the text: According to the Goldman–Hodgkin–Katz (GHK) voltage equation:2 Erev=RT∕Fln(PK[K^+]O+PNa[Na]O+PCl[Cl]i)/(PK[K^+]i+PNa[Na]i+PCl[Cl]o), where Erev is the absolute reversal potential and P is permeability. This permits calculation of the relative permeability of each ion if concentrations on either side of the membrane are known. A modified version of this equation was used here to determine relative permeability of two ions in a system in which only the extracellular ion concentration was known. Thus, relative permeability of Rb^+, Cs^+, and Na^+ compared to K^+ ions was calculated for KCNQ2 and KCNQ3* by plotting the I/V relationships for each channel with each extracellular ion (100 mM) (using the voltage protocol shown in Fig. 9g) and comparing them to that with 100 mM extracellular K^+ ion to yield a change in reversal potential (ΔErev) for each ion compared to that of K^+. Permeability ratios for each ion (X) compared to K^+ were then calculated as3 ΔErev=Erev,X−Erev,K=lnPX/PK. […]

Q: With `CS(=O)(=O)N(CC(=O)O)c1cccc(F)c1` [3FMSG] as the compound, how does the “effects on KCNQ1” value (KCNQ1) read?
A: negligible or much less potent effects

Q: And the “effect of a tenfold excess (100 µM) on KCNQ2 activation by 2FPG (10 µM)” value (KCNQ2 [1])?
A: subtly reduced the efficacy of 2FPG

Q: What about the “effects on KCNQ2” value (KCNQ2 [1]; dose response) of the same compound?
A: negligible or much less potent effects

Q: And the “KCNQ3* activation and deactivation rates” value (KCNQ3*; 100 µM)?
A: speeded activation and slowed deactivation

Q: And the EC50 (KCNQ3*; ΔV0.5act, read-out: EC50, KCNQ3* activation)?
A: 18 ± 12 nM

Q: And the “relative Na+ permeability (compared to K+) of KCNQ2” value (KCNQ2 [2])?
A: not KCNQ2
